Source: paper PMC8808171, “Nonselective TRPC channel inhibition and suppression of aminoglycoside-induced premature termination codon readthrough by the small molecule AC1903” (The Journal of Biological Chemistry, 2022)

Molecular target: T1, TRPC5:C5 (Homo sapiens, UniProt Q9UL62)
T1 construct: expressed in transfected cells; host or cells: HEK T-REx (tetracycline-induced)
T1 sequence (Q9UL62 1-973): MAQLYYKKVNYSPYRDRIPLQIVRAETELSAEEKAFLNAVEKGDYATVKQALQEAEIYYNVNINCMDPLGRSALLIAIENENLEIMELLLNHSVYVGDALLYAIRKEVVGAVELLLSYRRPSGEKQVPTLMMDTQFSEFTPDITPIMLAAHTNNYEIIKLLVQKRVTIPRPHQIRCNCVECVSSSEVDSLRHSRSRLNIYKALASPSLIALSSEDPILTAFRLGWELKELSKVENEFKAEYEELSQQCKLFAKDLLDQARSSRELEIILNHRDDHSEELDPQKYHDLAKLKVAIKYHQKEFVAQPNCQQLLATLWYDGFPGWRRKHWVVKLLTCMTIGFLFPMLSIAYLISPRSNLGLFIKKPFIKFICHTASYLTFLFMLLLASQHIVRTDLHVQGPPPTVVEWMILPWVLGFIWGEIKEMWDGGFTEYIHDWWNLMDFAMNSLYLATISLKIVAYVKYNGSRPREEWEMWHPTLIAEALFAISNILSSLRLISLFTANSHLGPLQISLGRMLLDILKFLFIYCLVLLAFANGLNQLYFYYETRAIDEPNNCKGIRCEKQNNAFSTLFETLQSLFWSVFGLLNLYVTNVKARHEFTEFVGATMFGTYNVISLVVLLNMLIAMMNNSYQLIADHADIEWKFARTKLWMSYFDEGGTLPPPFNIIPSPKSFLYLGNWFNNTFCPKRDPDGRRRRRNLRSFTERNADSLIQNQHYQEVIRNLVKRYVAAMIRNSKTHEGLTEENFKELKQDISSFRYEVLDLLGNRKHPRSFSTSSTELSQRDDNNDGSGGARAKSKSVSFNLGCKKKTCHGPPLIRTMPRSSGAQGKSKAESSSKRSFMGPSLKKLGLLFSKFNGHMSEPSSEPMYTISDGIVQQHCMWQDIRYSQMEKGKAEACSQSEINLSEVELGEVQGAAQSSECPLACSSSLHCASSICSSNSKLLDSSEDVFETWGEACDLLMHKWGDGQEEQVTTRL
Experiment: [Ca2+]i recordings (Fura-2), TRPC5:C5 in HEK T-REx cells
Format: cell-based
Details: for IC50: HEK T-REx, 30 min preincubation
Protocol: Based on the findings described above, we wondered whether AC1903—which is typically used as a TRPC5 inhibitor at concentrations of 30–100 μM in cellular assays ([29], [56])—might have limited selectivity for TRPC5 channels and whether its effect on intracellular G418 levels and PTC readthrough might be the consequence of inhibition of other or multiple targets. All well-characterized TRPC channel inhibitors reported to date modulate multiple TRP(C) channels ([34], [35], [36]). […] Because limited data for the selectivity of AC1903 are available in the public domain, we decided to profile AC1903 against a selection of calcium-permeable cation channels by intracellular calcium ([Ca^2+]i) recordings using well-characterized cell lines and TRP channel activators ([46], [57], [58]), and the Ca^2+ indicator Fura-2. In these assays, cells (HEK 293, HEK T-REx, or CHO) overexpressing the relevant ion channel protein and loaded with Fura-2 AM (a cell-permeable precursor of Fura-2) were preincubated with various concentrations of AC1903 or vehicle (DMSO) for 30 min. Then, changes in ratiometric fluorescence (from background) were recorded upon addition of the respective ion channel activator.
Figure 4 AC1903 inhibits multiple TRP channels.A and C, representative [Ca^2+]i measurements from a single 96-well plate (N = 6; mean ± SD over technical replicates) showing inhibition of EA-mediated [Ca^2+]i responses by 0.1 to 100 μM AC1903 in (Tet+) HEK T-REx cells expressing TRPC5 (A) or TRPC4 (C). B and D, concentration–response data for experiments in (A) and (C) (scatter plots showing normalized data for three independent experiments; n/N = 3/18). Responses were calculated at 250 to 295 s compared to [Ca^2+]i at baseline (0–55 s). E and G, representative [Ca^2+]i measurements from a single 96-well plate (N = 6; mean ± SD over technical replicates) showing inhibition of OAG-mediated [Ca^2+]i responses by 0.1 to 100 μM AC1903 in (Tet+) HEK T-REx cells expressing TRPC3 (E) and WT HEK 293 cells transiently expressing TRPC6 (G). F and H, concentration–response data for experiments in (E) and (G) (scatter plots showing normalized data for three independent experiments; n/N = 3/18). Responses were calculated at 90 to 110 s compared with [Ca^2+]i at baseline (0–55 s). I, representative [Ca^2+]i measurements from a single 96-well plate (N = 6; mean ± SD over technical replicates) showing inhibition of the 4α-PDD-mediated [Ca^2+]i response by 0.1 to 100 μM AC1903 in CHO cells stably expressing TRPV4. J, concentration–response data for experiments in (I) (scatter plot showing normalized data for three independent experiments; n/N = 3/18). Responses were calculated at 290 to 300 s compared with [Ca^2+]i baseline (0–55 s). EA, (-)-englerin A; TRPC, transient receptor potential canonical. […]

- IC50 (activator EA (30 nM)): 18 µM
- IC50 (activator S1P (10 μM)): 3.5 µM
- Hill slope (activator EA (30 nM)): -1.8
- Hill slope (activator S1P (10 μM)): -1.6
Compound: c1ccc(Cn2c(NCc3ccco3)nc3ccccc32)cc1 [AC1903]
